From BindingDB's records for patent WO2022101377 (Boehringer Ingelheim International, 2022) come the findings set out here.

A word on the IC50: it is the concentration at which inhibition is half-maximal.

SMILES strings stand for the structures.

The target of this experiment is Platelet-activating factor receptor (Homo sapiens, UniProt P25105). In words: EVALUATION OF THE INHIBITION OF PAFR ACTIVATION
As for the experimental part:
USING AN ENDPOINT ASSAY HEK293 cells overexpressing human PAFR (produced in-house) are seeded into a Poly-D-Lysine coated 384 well white cell culture microtiter assay plate with lid (15.000 cells per well). Subsequently, the plates are incubated over night at 37 °C/5% CO2. On the next day, cells are being washed and subsequently, various concentrations of the test compounds (compounds in 100% DMSO; final concentratrion of DMSO in wells is 1%) are added to the assay plate via Echo 555 acoustic liquid handler. Plates are then incubated with lid for 90 minutes at 37 °C/5% CO2. Thereafter, PAF ligand (Cayman Chemical Company, Item no.: 60900) is added at a final concentration of 11 nM. Plates are then incubated with lid for 60 minutes at 37 °C/5% CO2. Then, 5 µl per well of Anti-IP1-Antibody-Cryptate solution and 5 µL per well of IP1-d2 solution are added to all wells of the plate and the plate is incubated for another 60 minutes light protected at room temperature. The emissions at 620 nm and 665 nm (Excitation wavelength: 320 nm) are measured using an Envision Reader (PerkinElmer).

Sequence of Platelet-activating factor receptor (P25105 whole entry): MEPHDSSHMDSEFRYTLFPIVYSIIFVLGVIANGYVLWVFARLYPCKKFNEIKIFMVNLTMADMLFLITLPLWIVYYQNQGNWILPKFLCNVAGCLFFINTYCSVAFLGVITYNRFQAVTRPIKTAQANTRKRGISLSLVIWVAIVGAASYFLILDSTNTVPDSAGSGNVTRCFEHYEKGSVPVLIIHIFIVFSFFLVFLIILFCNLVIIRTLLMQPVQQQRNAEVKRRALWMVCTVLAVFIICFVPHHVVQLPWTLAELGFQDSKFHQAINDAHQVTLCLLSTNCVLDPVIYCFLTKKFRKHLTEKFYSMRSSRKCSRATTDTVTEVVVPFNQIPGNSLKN

For `COc1ccccc1C1NCc2nnc(C)n2-c2sc3c(c21)CC(C(=O)N1CCOCC1)C3` (stereo unspecified) [WO2022101377, Example 54], the IC50 is > 322 nM. Consider `Cc1nnc2n1-c1sc3c(c1C(c1ccccc1C(F)(F)F)NC2)CC(C(=O)N1CCOCC1)C3` (stereo unspecified) [WO2022101377, Example 56], for which the IC50 is > 322 nM.

For the molecule `Cc1nnc2n1-c1sc3c(c1C(c1cc(F)cc(F)c1)NC2)CC(C(=O)N1CCOCC1)C3` (stereo unspecified) [WO2022101377, Example 58], the IC50 was > 322 nM. With `Cc1nnc2n1-c1sc3c(c1C(c1ccccc1C1CC1)NC2)CC(C(=O)N1CCOCC1)C3` (stereo unspecified) [WO2022101377, Example 59], the IC50 is > 322 nM. Under `Cc1nnc2n1-c1sc3c(c1C(c1ccccc1CO)NC2)CC(C(=O)N1CCOCC1)C3` (stereo unspecified) [WO2022101377, Example 60] stands > 322 nM; under `Cc1nnc2n1-c1sc3c(c1C(c1ccccc1O)NC2)CC(C(=O)N1CCOCC1)C3` (stereo unspecified) [WO2022101377, Example 61], > 322 nM. With `Cc1ccccc1[C@H]1NCc2nnc(C)n2-c2sc3c(c21)C[C@H](C(=O)N1CCOCC1)C3` [WO2022101377, Example 63], the IC50 is > 568 nM. As for `Cc1nnc2n1-c1sc3c(c1C(c1ccccc1Cl)NC2)C[C@H](C(=O)N1CCCC2(CC2)C1)C3` (stereo partly specified) [WO2022101377, Example 66], half-maximal inhibition (IC50) required 2.7 nM. This counts as single-digit nanomolar.

In turn, `Cc1nnc2n1-c1sc3c(c1C(c1ccccc1)NC2)CC(C(=O)N1CCOCC1)C3` (stereo unspecified) [WO2022101377, Example 74] came in with an IC50 of 102 nM. Under `CSc1ccccc1C1NCc2nnc(C)n2-c2sc3c(c21)CC(C(=O)N1CCOCC1)C3` (stereo unspecified) [WO2022101377, Example 79] stands 235 nM. The molecule `CCCc1nnc2n1-c1sc3c(c1C(c1ccccc1Cl)NC2)CC(C(=O)N1CCOCC1)C3` (stereo unspecified) [WO2022101377, Example 80] had an IC50 of 110 nM. Against the preceding molecule, the IC50 is about 2.1-fold lower.
